# From PubChem BioAssay AID2060490 (Molecular Pharmacology Branch, DTP, NCI, 2025)
# Tested on: 885512-296-R-J2-PDC complex spheroid viability
# Assay: Anticancer human tumor 885512-296-R-J2-PDC patient-derived breast carcinoma cell line growth inhibition [GQUAD]
# Conditions: for IC50: curve of first compound; for viability, T/C: stronger effect = lower value
# Procedure, shortened: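 Tumor cells were grown as complex spheroids with HUVEC endothelial cells and mesenchymal stem cells as stroma. G-quadruplex stabilizers were combined with targeted agents over half-log dilutions from near the clinical Cmax, or from 10 microM.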
# [1] = second compound 0.0316 µM, first compound 0.0316 µM
# [2] = second compound 0.0316 µM, first compound 0.1 µM
# [3] = second compound 0.0316 µM, first compound 0.316 µM
# [4] = second compound 0.0316 µM, first compound 1 µM
# [5] = second compound 0.0316 µM, first compound 3.16 µM
# [6] = second compound 0.0316 µM, first compound 10 µM
# [7] = second compound 0.1 µM, first compound 0.0316 µM
# [8] = second compound 0.1 µM, first compound 0.1 µM
# [9] = second compound 0.1 µM, first compound 0.316 µM
# [10] = second compound 0.1 µM, first compound 1 µM
# [11] = second compound 0.1 µM, first compound 3.16 µM
# [12] = second compound 0.1 µM, first compound 10 µM
# [13] = second compound 0.316 µM, first compound 0.0316 µM
# [14] = second compound 0.316 µM, first compound 0.1 µM
# [15] = second compound 0.316 µM, first compound 0.316 µM
# [16] = second compound 0.316 µM, first compound 1 µM
# [17] = second compound 0.316 µM, first compound 3.16 µM
# [18] = second compound 0.316 µM, first compound 10 µM
# [19] = second compound 1 µM, first compound 0.0316 µM
# [20] = second compound 1 µM, first compound 0.1 µM
# [21] = second compound 1 µM, first compound 0.316 µM
# [22] = second compound 1 µM, first compound 1 µM
# [23] = second compound 1 µM, first compound 3.16 µM
# [24] = second compound 1 µM, first compound 10 µM
# [25] = second compound 3.16 µM, first compound 0.0316 µM
# [26] = second compound 3.16 µM, first compound 0.1 µM
# [27] = second compound 3.16 µM, first compound 0.316 µM
# [28] = second compound 3.16 µM, first compound 1 µM
# [29] = second compound 3.16 µM, first compound 3.16 µM
# [30] = second compound 3.16 µM, first compound 10 µM
# [31] = second compound 10 µM, first compound 0.0316 µM
# [32] = second compound 10 µM, first compound 0.1 µM
# [33] = second compound 10 µM, first compound 0.316 µM
# [34] = second compound 10 µM, first compound 1 µM
# [35] = second compound 10 µM, first compound 3.16 µM
# [36] = second compound 10 µM, first compound 10 µM
# 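Further: spheroids exposed to the compounds for one week.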
# 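Wherever viability, T/C is given: percent of tumor spheroid viability relative to DMSO vehicle control wells.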
smiles,measurement,setting,value
COc1cccc2c1C(=O)c1c(O)c3c(c(O)c1C2=O)CC(O)(C(=O)CO)CC3OC1CC(N)C(O)C(C)O1 (stereo not drawn) + Cc1[nH]c2ccc(F)cc2c1-c1nc2c3cccnc3c3ncccc3c2[nH]1,IC50,second compound 0.0316 µM,89.6 nM
same,IC50,second compound 0.1 µM,84.1 nM
same,IC50,second compound 0.316 µM,81.9 nM
same,IC50,second compound 1 µM,58 nM
same,IC50,second compound 3.16 µM,< 31.6 nM
same,IC50,second compound 10 µM,< 31.6 nM
same,"viability, T/C",[1],96.2%
same,"viability, T/C",[2],41.8%
same,"viability, T/C",[3],25.3%
same,"viability, T/C",[4],9.04%
same,"viability, T/C",[5],0.5%
same,"viability, T/C",[6],2.46%
same,"viability, T/C",[7],101%
same,"viability, T/C",[8],36.4%
same,"viability, T/C",[9],23.9%
same,"viability, T/C",[10],10.9%
same,"viability, T/C",[11],0.36%
same,"viability, T/C",[12],3.62%
same,"viability, T/C",[13],85.5%
same,"viability, T/C",[14],39.4%
same,"viability, T/C",[15],25.1%
same,"viability, T/C",[16],8.52%
same,"viability, T/C",[17],0.35%
same,"viability, T/C",[18],2.33%
same,"viability, T/C",[19],67.7%
same,"viability, T/C",[20],32%
same,"viability, T/C",[21],20%
same,"viability, T/C",[22],7.54%
same,"viability, T/C",[23],0.39%
same,"viability, T/C",[24],2.51%
same,"viability, T/C",[25],17.2%
same,"viability, T/C",[26],12.3%
same,"viability, T/C",[27],4.34%
same,"viability, T/C",[28],2.57%
same,"viability, T/C",[29],0.34%
same,"viability, T/C",[30],1.2%
same,"viability, T/C",[31],1.64%
same,"viability, T/C",[32],1.76%
same,"viability, T/C",[33],2.1%
same,"viability, T/C",[34],1.15%
same,"viability, T/C",[35],0.87%
same,"viability, T/C",[36],0.81%
Cn1ncnc1[C@H]1c2n[nH]c(=O)c3cc(F)cc(c23)N[C@@H]1c1ccc(F)cc1 + Cc1[nH]c2ccc(F)cc2c1-c1nc2c3cccnc3c3ncccc3c2[nH]1,IC50,second compound 0.0316 µM,277 nM
same,IC50,second compound 0.1 µM,234 nM
same,IC50,second compound 0.316 µM,220 nM
same,IC50,second compound 1 µM,106 nM
same,IC50,second compound 3.16 µM,< 0.999 nM
same,IC50,second compound 10 µM,< 0.999 nM
same,"viability, T/C","second compound 0.0316 µM, first compound 0.000999 µM",108%
same,"viability, T/C","second compound 0.0316 µM, first compound 0.00316 µM",84.1%
same,"viability, T/C","second compound 0.0316 µM, first compound 0.00999 µM",89.5%
same,"viability, T/C",[1],86.8%
same,"viability, T/C","second compound 0.0316 µM, first compound 0.0999 µM",66.4%
same,"viability, T/C",[3],46.8%
same,"viability, T/C","second compound 0.1 µM, first compound 0.000999 µM",104%
same,"viability, T/C","second compound 0.1 µM, first compound 0.00316 µM",101%
same,"viability, T/C","second compound 0.1 µM, first compound 0.00999 µM",93.9%
same,"viability, T/C",[7],75.4%
same,"viability, T/C","second compound 0.1 µM, first compound 0.0999 µM",76.2%
same,"viability, T/C",[9],41.1%
same,"viability, T/C","second compound 0.316 µM, first compound 0.000999 µM",90.8%
same,"viability, T/C","second compound 0.316 µM, first compound 0.00316 µM",82.9%
same,"viability, T/C","second compound 0.316 µM, first compound 0.00999 µM",82.1%
same,"viability, T/C",[13],77.3%
same,"viability, T/C","second compound 0.316 µM, first compound 0.0999 µM",67%
same,"viability, T/C",[15],42.1%
same,"viability, T/C","second compound 1 µM, first compound 0.000999 µM",70.8%
same,"viability, T/C","second compound 1 µM, first compound 0.00316 µM",79.3%
same,"viability, T/C","second compound 1 µM, first compound 0.00999 µM",67.6%
same,"viability, T/C",[19],57.7%
same,"viability, T/C","second compound 1 µM, first compound 0.0999 µM",53.6%
same,"viability, T/C",[21],34.6%
same,"viability, T/C","second compound 3.16 µM, first compound 0.000999 µM",25.6%
same,"viability, T/C","second compound 3.16 µM, first compound 0.00316 µM",23.2%
same,"viability, T/C","second compound 3.16 µM, first compound 0.00999 µM",17.1%
same,"viability, T/C",[25],15.6%
same,"viability, T/C","second compound 3.16 µM, first compound 0.0999 µM",13.8%
same,"viability, T/C",[27],7.86%
same,"viability, T/C","second compound 10 µM, first compound 0.000999 µM",3.25%
same,"viability, T/C","second compound 10 µM, first compound 0.00316 µM",3.75%
same,"viability, T/C","second compound 10 µM, first compound 0.00999 µM",8.84%
same,"viability, T/C",[31],2.56%
same,"viability, T/C","second compound 10 µM, first compound 0.0999 µM",2.53%
same,"viability, T/C",[33],2.11%
O=C(NO)c1cnc(N2CCN(S(=O)(=O)c3ccc4ccccc4c3)CC2)nc1 + Cc1[nH]c2ccc(F)cc2c1-c1nc2c3cccnc3c3ncccc3c2[nH]1,IC50,second compound 0.0316 µM,< 31.6 nM
same,IC50,second compound 0.1 µM,< 31.6 nM
same,IC50,second compound 0.316 µM,< 31.6 nM
same,IC50,second compound 1 µM,< 31.6 nM
same,IC50,second compound 3.16 µM,< 31.6 nM
same,IC50,second compound 10 µM,< 31.6 nM
same,"viability, T/C",[1],7.49%
same,"viability, T/C",[2],2.85%
same,"viability, T/C",[3],3.25%
same,"viability, T/C",[4],3.35%
same,"viability, T/C",[5],2.95%
same,"viability, T/C",[6],3.28%
same,"viability, T/C",[7],6.66%
same,"viability, T/C",[8],3.49%
same,"viability, T/C",[9],2.89%
same,"viability, T/C",[10],3.93%
same,"viability, T/C",[11],2.97%
same,"viability, T/C",[12],4.1%
same,"viability, T/C",[13],7.12%
same,"viability, T/C",[14],4.32%
same,"viability, T/C",[15],3.29%
same,"viability, T/C",[16],3.62%
same,"viability, T/C",[17],3.66%
same,"viability, T/C",[18],4.67%
same,"viability, T/C",[19],6.46%
same,"viability, T/C",[20],4.49%
same,"viability, T/C",[21],3.76%
same,"viability, T/C",[22],5.02%
same,"viability, T/C",[23],5.46%
same,"viability, T/C",[24],3.77%
same,"viability, T/C",[25],2.35%
same,"viability, T/C",[26],2.1%
same,"viability, T/C",[27],2.47%
same,"viability, T/C",[28],2.68%
same,"viability, T/C",[29],1.7%
same,"viability, T/C",[30],2.56%
same,"viability, T/C",[31],1.59%
same,"viability, T/C",[32],2.99%
same,"viability, T/C",[33],1.66%
same,"viability, T/C",[34],1.46%
same,"viability, T/C",[35],1.54%
same,"viability, T/C",[36],2.58%
O=c1[nH]cc(F)c(=O)[nH]1 + Cc1[nH]c2ccc(F)cc2c1-c1nc2c3cccnc3c3ncccc3c2[nH]1,IC50,second compound 0.0316 µM,> 10000 nM
same,IC50,second compound 0.1 µM,> 10000 nM
same,IC50,second compound 0.316 µM,> 10000 nM
same,IC50,second compound 1 µM,> 10000 nM
same,IC50,second compound 3.16 µM,< 31.6 nM
same,IC50,second compound 10 µM,< 31.6 nM
same,"viability, T/C",[1],98.3%
same,"viability, T/C",[2],98.3%
same,"viability, T/C",[3],104%
same,"viability, T/C",[4],122%
same,"viability, T/C",[5],69.5%
same,"viability, T/C",[6],59.3%
same,"viability, T/C",[7],102%
same,"viability, T/C",[8],106%
same,"viability, T/C",[9],111%
same,"viability, T/C",[10],104%
same,"viability, T/C",[11],70.1%
same,"viability, T/C",[12],56.2%
same,"viability, T/C",[13],96.9%
same,"viability, T/C",[14],90.1%
same,"viability, T/C",[15],81.7%
same,"viability, T/C",[16],104%
same,"viability, T/C",[17],70.5%
same,"viability, T/C",[18],61.1%
same,"viability, T/C",[19],80.4%
same,"viability, T/C",[20],82.3%
same,"viability, T/C",[21],73.7%
same,"viability, T/C",[22],66.4%
same,"viability, T/C",[23],53.9%
same,"viability, T/C",[24],51.6%
same,"viability, T/C",[25],22%
same,"viability, T/C",[26],18.2%
same,"viability, T/C",[27],14.3%
same,"viability, T/C",[28],16.8%
same,"viability, T/C",[29],11.4%
same,"viability, T/C",[30],9.54%
same,"viability, T/C",[31],1.17%
same,"viability, T/C",[32],2.62%
same,"viability, T/C",[33],1.62%
same,"viability, T/C",[34],1.6%
same,"viability, T/C",[35],1.85%
same,"viability, T/C",[36],1.45%
